Source: US12065443B2, “Compounds and pharmaceutical compositions thereof for the treatment of diseases” (priority 2017, dated 2024)
Read-outs that look alike come from different tables or passages of the source.

Experiments:
SIK1 [1] = target: T1, SIK1 (Homo sapiens, UniProt P57059); assay: biochemical; conditions: ADP-Glo SIK kinase assay
T1 construct: purchased Carna Biosciences 02-131
Protocol: (§1) The ADP-Glo™ kinase assay is a luminescent technology assay which measures the ADP formed from a kinase reaction. […] In a second step the kinase reactions are terminated and all the remaining ATP is depleted. In a final step the ADP is converted into ATP and this newly synthesized ATP is measured by using a luciferase/luciferin reaction. The generated light is measured using an Envision plate reader, wherein the luminescent signal obtained positively correlates with the kinase activity.
(§2) 1% DMSO and 10 μM staurosporine final concentrations are used as negative and positive controls.
(§3) 2 μL enzyme-substrate mixture is added to the assay plates.
(§4) The reaction is started by adding 2 μL diluted ATP on the assay plates. Plates are centrifuged for a few seconds at 1000 rpm and gently shaken for 2 min followed by an incubation at RT for 120 min.
(§5) The reactions are stopped and the unconsumed ATP is depleted by adding 5 μL ADP-Glo Reagent (Promega, Cat #V912B) to the reaction. The plates are centrifuged for a few seconds at 1000 rpm and incubated at RT for 40 min (ATP depletion).
(§6) The ADP is converted to ATP and luciferase and luciferin is introduced to detect ATP by adding 10 μL Kinase Detection Reagent (Promega, Cat #V913B+V914B) to the reaction. The plates are centrifuged for a few seconds at 1000 rpm and incubated at RT for 30 min (ADP detection).
(§7) Luminescence is measured on an Envision plate reader (PerkinElmer Inc.).

SIK2 [2] = target: T2, SIK2 (Homo sapiens, UniProt Q9H0K1); assay: biochemical; conditions: ADP-Glo SIK kinase assay
T2 construct: purchased ThermoFisher Scientific PV4792
Protocol: as §1, §2, §3, §4, §5, §6, §7

SIK3 [3] = target: T3, SIK3 (Homo sapiens, UniProt Q9Y2K2); assay: biochemical; conditions: ADP-Glo SIK kinase assay
T3 construct: purchased SignalChem S12-11G-100
Protocol: as §1, §2, §3, §4, §5, §6, §7

SIK1 [4] = target: T1, SIK1; assay: biochemical; conditions: 33P radioactive SIK kinase assay, AMARA peptide, 10 μM ATP; read-out: SIK1 IC50
Method in brief: (§8)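 Radiometric assay: SIK1, SIK2 or SIK3 phosphorylates AMARA peptide using unlabelled plus [^33P]-γ-ATP, reaction started by ATP addition. Stopped with 150 mM phosphoric acid, filter-harvested and washed; incorporated ^33P counted by scintillation. Controls: 1% DMSO and 10 μM staurosporine final.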

SIK2 [5] = target: T2, SIK2; assay: biochemical; conditions: 33P radioactive SIK kinase assay, AMARA peptide, 10 μM ATP
Method in brief: as §8

SIK3 [6] = target: T3, SIK3; assay: biochemical
Method in brief: as §8

[7] = test system: LPS-induced TNFα secretion in monocyte-derived macrophages (MdM); assay: MdM assay: LPS-triggered TNFα (ELISA); format: cell-based, human; conditions: Homo sapiens, Macrophage, LPS-triggered TNFα inhibition
Method in brief: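 TNFα ELISA read on supernatants harvested 20 h after LPS (final 200 ng/mL) stimulation. Cells were day-10 macrophages derived from human blood CD14+ monocytes, exposed to 3-fold compound dilutions for 1 h at 37 °C beforehand, with DMSO held at 0.2%.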

[8] = test system: LPS triggered IL-10 secretion in monocyte-derived macrophages (MdM); assay: MdM assay: LPS-triggered IL-10 (ELISA); format: cell-based, human; conditions: maximal fold change vs LPS only, median across assays
Protocol: This assay evaluates illustrative compounds of the invention for their inhibition of LPS-induced TNFα and LPS triggered IL-10 secretion in monocyte-derived macrophages.
PBMCs are isolated from human blood samples (buffycoats). The buffy coat is aseptically transferred into a 50 mL Falcon tube, and diluted 1/2 in PBS. Falcon tubes are filled with 20 mL Lymphoprep™, on top of which 25 mL of the buffy coat is carefully added, tubes are centrifuged for 35 min at 400 g in temperature controlled centrifuge, without brake, at 25° C. PBMCs are aspirated from the white interface layer between sample and Lymphoprep™. PBMCs are washed five times in PBS.
PBMCs are centrifuged at 300×g for 10 min and resuspended at a density of 1.0E07 cells/80 μL Miltenyi buffer (PBS, pH 7.4, 1% FBS, 2 mM EDTA).
Starting from this point of the protocol all steps are performed on ice. 20 μL of CD14+ micro-beads are added per 1.0E07 cells, the tube is mixed and incubated for 15 min in the fridge at 4° C. Cell suspension volume is adjusted to total volume of 100 mL using Miltenyi buffer, mixed gently and subsequently centrifuged for 10 min at 300× g. Supernantant is discarded and cell pellet is resuspended in 12 mL of Miltenyi buffer.
Four LS columns are placed in the MACS Separator (magnet) from Miltenyi Biotec, and are prewet by rinsing with 3 mL of MACS buffer per column. Three mL of cell suspension is added onto the column (max 1*10^8 of labelled cells/column), and columns are subsequently washed 3 times with 3 mL of Miltenyi buffer.
The columns are removed from the magnets, and 5 mL of Miltenyi buffer are added to the column to flush out the CD14+ fraction by pushing the plunger into the column. The flushed fractions are collected in a fresh 50 mL Falcon and volume is adjusted to 30 mL using Miltenyi buffer, cells are centrifuged for 10 min at 300× g. The obtained cell pellet is resuspended in 10 mL RPMI w/o FBS, and cell density is determined using a hematologic analyser (Sysmex XS-500i).
On day 10, MdMs are triggered and compound is added.
A compound dilution plate is made in 100% DMSO by 3-fold dilution of 10 mM stock solution. An intermediate dilution plate (10× final concentration) is made by diluting the compound dilution plate 50-fold in RPMI medium.
Medium is carefully removed from cell plates using multichannel pipette, and replaced by 80 μL fresh medium. 10 μL of the 10× final concentration compound is added to the cells and incubated for 1 hour at 37° C. before addition of trigger. No trigger conditions/trigger conditions are spiked with equal final DMSO concentrations of 0.2% DMSO. 10 μL of 10×LPS (final conc. 200 ng/mL) solution are added to all wells except for the ‘no trigger wells’ where 10 μL medium is added. Supernatant is collected after 2 h (IL-10 determination) and after 20 h (TNFα determination) of LPS triggering.
Plates are washed three times with PBST, where after 100 μL of Strep-HRP conjugate (0.5 μg/mL final concentration diluted in dilution buffer) is added. Plates are incubated in the dark, at 37° C. for 30 min. Plates are washed three times with PBST. […] 100 μL of substrate solution is added to each well and incubated until brilliant blue color develops. The reaction is stopped by adding 50 μL of 1 M H2SO4, after which absorbance is measured at 450 nm on the SpectraMax i3, Molecular Devices.
To quantify these inductions fold changes (FC) compared to ‘LPS only’ are calculated for each concentration tested and the maximal FC is calculated (IL-10 FCmax):
[formula] wherein ABS=Absorbance measured at 450 nm.
The median maximal FC for test compounds across two or more assays is reported (IL-10FCmax median).

T1 sequence (P57059 whole entry): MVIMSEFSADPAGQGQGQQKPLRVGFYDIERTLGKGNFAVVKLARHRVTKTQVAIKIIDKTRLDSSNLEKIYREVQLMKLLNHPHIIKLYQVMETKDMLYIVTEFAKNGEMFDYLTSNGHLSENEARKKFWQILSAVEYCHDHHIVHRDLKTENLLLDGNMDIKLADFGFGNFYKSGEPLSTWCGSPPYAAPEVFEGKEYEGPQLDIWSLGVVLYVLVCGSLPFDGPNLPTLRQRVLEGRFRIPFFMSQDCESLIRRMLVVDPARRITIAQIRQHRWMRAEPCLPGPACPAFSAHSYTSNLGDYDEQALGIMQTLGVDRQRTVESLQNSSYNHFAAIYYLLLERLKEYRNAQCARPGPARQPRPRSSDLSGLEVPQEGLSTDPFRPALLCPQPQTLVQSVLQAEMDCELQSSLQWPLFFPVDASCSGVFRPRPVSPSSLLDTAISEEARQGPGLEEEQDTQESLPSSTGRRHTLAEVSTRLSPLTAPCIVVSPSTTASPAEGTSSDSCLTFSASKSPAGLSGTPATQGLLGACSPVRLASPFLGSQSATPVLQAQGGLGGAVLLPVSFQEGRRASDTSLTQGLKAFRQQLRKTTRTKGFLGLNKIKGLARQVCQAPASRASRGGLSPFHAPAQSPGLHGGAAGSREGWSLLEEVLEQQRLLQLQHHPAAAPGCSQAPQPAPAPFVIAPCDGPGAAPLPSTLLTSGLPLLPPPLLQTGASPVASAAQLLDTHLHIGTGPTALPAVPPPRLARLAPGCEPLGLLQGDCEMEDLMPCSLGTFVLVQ
T3 sequence (Q9Y2K2 whole entry): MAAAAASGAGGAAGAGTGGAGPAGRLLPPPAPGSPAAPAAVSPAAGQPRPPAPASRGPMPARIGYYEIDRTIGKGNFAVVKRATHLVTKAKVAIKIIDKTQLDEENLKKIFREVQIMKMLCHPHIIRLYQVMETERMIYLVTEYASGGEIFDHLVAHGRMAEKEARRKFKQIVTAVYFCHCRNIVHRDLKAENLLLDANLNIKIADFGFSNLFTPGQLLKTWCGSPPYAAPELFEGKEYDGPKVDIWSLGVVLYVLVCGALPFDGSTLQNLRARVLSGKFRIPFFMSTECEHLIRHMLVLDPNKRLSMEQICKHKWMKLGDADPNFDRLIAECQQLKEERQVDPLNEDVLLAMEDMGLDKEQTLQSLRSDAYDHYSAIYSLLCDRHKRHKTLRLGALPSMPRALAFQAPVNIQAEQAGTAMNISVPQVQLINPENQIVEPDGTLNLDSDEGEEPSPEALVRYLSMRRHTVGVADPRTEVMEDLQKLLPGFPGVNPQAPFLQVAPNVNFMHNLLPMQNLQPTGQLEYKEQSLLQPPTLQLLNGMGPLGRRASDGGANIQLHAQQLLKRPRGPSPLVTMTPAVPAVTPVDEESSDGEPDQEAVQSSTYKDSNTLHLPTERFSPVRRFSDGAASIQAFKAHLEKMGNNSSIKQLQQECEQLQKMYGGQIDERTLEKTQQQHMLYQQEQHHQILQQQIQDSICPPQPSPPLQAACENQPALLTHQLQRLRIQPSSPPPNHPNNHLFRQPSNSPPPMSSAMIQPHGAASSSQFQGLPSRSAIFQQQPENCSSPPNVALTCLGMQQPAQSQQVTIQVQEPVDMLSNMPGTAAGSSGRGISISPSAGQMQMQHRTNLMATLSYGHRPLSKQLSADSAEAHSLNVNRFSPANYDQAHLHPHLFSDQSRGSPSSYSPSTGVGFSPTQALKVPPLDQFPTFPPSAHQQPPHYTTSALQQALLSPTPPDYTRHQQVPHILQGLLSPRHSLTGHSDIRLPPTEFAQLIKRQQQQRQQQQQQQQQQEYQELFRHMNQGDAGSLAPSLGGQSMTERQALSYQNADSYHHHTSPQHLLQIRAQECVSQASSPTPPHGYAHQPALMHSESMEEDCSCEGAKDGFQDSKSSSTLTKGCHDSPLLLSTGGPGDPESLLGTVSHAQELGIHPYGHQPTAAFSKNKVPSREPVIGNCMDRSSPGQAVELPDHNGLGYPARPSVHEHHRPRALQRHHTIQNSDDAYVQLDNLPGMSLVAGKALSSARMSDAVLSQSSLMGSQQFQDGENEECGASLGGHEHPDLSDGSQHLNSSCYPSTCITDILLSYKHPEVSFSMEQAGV
T2 sequence (Q9H0K1 whole entry): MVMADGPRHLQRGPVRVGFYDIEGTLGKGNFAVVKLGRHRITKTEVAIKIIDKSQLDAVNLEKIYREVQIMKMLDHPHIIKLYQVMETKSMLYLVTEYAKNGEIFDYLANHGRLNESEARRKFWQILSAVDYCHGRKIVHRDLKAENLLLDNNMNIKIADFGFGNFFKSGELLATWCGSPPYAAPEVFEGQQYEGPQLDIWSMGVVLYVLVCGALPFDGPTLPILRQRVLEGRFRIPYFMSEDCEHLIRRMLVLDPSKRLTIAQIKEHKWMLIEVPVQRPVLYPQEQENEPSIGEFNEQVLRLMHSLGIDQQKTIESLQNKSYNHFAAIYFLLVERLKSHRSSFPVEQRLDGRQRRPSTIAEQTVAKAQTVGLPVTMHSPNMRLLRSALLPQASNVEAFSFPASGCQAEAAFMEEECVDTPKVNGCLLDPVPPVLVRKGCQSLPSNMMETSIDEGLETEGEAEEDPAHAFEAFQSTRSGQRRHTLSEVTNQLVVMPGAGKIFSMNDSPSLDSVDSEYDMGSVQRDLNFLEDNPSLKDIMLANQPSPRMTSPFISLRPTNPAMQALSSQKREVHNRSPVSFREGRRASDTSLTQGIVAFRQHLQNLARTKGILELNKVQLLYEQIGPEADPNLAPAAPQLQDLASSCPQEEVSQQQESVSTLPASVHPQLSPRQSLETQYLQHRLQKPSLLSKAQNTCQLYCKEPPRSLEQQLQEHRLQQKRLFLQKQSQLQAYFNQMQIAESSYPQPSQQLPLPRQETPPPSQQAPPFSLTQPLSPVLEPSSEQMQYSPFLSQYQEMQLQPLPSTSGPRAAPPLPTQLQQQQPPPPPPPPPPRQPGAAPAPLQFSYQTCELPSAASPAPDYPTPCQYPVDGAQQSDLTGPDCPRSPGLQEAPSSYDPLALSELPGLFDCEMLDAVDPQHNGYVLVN

| Compound | IC50 (SIK1 [1]) | IC50 (SIK2 [2]) | IC50 (SIK3 [3]) | IC50 (SIK1 [4]) | IC50 (SIK2 [5]) | IC50 (SIK3 [6]) | EC50 [7] | IL-10 FCmax median [8] |
| --- | --- | --- | --- | --- | --- | --- | --- | --- |
| [2H]C([2H])([2H])Oc1cc(-c2cnc3cc(-c4cnn(C)c4)ccn23)cc(OC([2H])([2H])[2H])c1C(=O)NCC(F)(F)F [Cpd 266, 4-[7-(1-methylpyrazol-4-yl)imidazo[1,2-a]pyridin-3-yl]-2,6-bis(trideuterio-methoxy)-N-(2,2,2-trifluoroethyl)benzamide] | 0.01 to 10 nM | 0.01 to 10 nM | 0.01 to 10 nM | – | – | – | – | – |
| CCOC(=O)Cn1cc(-c2ccn3c(-c4cc(OC)c(C(=O)NC5CC5)c(OC(F)F)c4)cnc3c2)cn1 [Cpd 284, ethyl 2-[4-[3-[4-(cyclopropyl-carbamoyl)-3-(difluoromethoxy)-5-methoxy-phenyl]imidazo[1,2-a]pyridin-7-yl]pyrazol-1-yl]acetate] | 0.01 to 10 nM | 0.01 to 10 nM | 0.01 to 10 nM | – | – | – | – | – |
| COc1cc(-c2cnc3cc(-c4cnn(C)c4)c(OCc4ccccc4)cn23)cc(OC(F)F)c1C(=O)NC1CC1 [Cpd 300, 4-[6-benzyloxy-7-(1-methylpyrazol-4-yl)imidazo[1,2-a]pyridin-3-yl]-N-cyclopropyl-2-(difluoromethoxy)-6-methoxy-benzamide] | 10 to 100 nM | 0.01 to 10 nM | 10 to 100 nM | – | – | – | – | – |
| COc1cc(-c2cnc3cc(-c4cnn(C)c4)c(OC(C)C#N)cn23)cc(OC(F)F)c1C(=O)NC1CC1 (stereo not drawn) [Cpd 301, 4-[6-(1-cyanoethoxy)-7-(1-methylpyrazol-4-yl)imidazo[1,2-a]pyridin-3-yl]-N-cyclopropyl-2-(difluoromethoxy)-6-methoxy-benzamide] | 0.01 to 10 nM | 0.01 to 10 nM | 0.01 to 10 nM | – | – | – | – | – |
| CCOC(=O)C(C)Oc1cn2c(-c3cc(OC)c(C(=O)NC4CC4)c(OC(F)F)c3)cnc2cc1-c1cnn(C)c1 (stereo not drawn) [Cpd 302, ethyl 2-[3-[4-(cyclopropyl-carbamoyl)-3-(difluoromethoxy)-5-methoxy-phenyl]-7-(1-methylpyrazol-4-yl)imidazo[1,2-a]pyridin-6-yl]oxypropanoate] | 10 to 100 nM | 10 to 100 nM | 10 to 100 nM | – | – | – | – | – |
| COc1cc(-c2cnc3cc(-c4cnn(C)c4)c(OC(C)C(=O)O)cn23)cc(OC(F)F)c1C(=O)NC1CC1 (stereo not drawn) [Cpd 303, 2-[3-[4-(cyclopropyl-carbamoyl)-3-(difluoromethoxy)-5-methoxy-phenyl]-7-(1-methylpyrazol-4-yl)imidazo[1,2-a]pyridin-6-yl]oxypropanoic acid] | 10 to 100 nM | 10 to 100 nM | 10 to 100 nM | – | – | – | – | – |
| COc1cc(-c2cnc3cc(-c4cnn(C(C)(C)C(=O)O)c4)ccn23)cc(OC)c1C(=O)NCC(F)(F)F [Cpd 304, 2-[4-[3-[3,5-dimethoxy-4-(2,2,2-trifluoroethyl-carbamoyl)phenyl]imidazo[1,2-a]pyridin-7-yl]pyrazol-1-yl]-2-methyl-propanoic acid] | 0.01 to 10 nM | 10 to 100 nM | 0.01 to 10 nM | – | – | – | – | – |
| COc1cc(-c2cnc3cc(-c4ccc(C#N)nc4)ccn23)cc(OC)c1C(=O)NCC(F)(F)F [compound 240, 4-[7-(6-cyano-3-pyridyl)imidazo[1,2-a]pyridin-3-yl]-2,6-dimethoxy-N-(2,2,2-trifluoroethyl)benzamide] | – | – | – | 100 to 500 nM | 10 to 100 nM | 0.01 to 10 nM | 100 to 1000 nM | + (≤1.5) |
| COC(=O)CCCn1cc(-c2ccn3c(-c4cc(OC)c(C(=O)NCC(F)(F)F)c(OC)c4)cnc3c2)cn1 [compound 256, methyl 4-[4-[3-[3,5-dimethoxy-4-(2,2,2-trifluoroethyl-carbamoyl)phenyl]imidazo[1,2-a]pyridin-7-yl]pyrazol-1-yl]butanoate] | – | – | – | 0.01 to 10 nM | 0.01 to 10 nM | 0.01 to 10 nM | 0.1 to 100 nM | ++ (>1.5-4.5) |
| CCOC(=O)CCCn1cc(-c2ccn3c(-c4cc(OC)c(C(=O)NCC(F)(F)F)c(OC)c4)cnc3c2)cn1 [compound 257, ethyl 4-[4-[3-[3,5-dimethoxy-4-(2,2,2-trifluoroethyl-carbamoyl)phenyl]imidazo[1,2-a]pyridin-7-yl]pyrazol-1-yl]butanoate] | – | – | – | 0.01 to 10 nM | 0.01 to 10 nM | 0.01 to 10 nM | 0.1 to 100 nM | + (≤1.5) |
| COc1cc(-c2cnc3cc(-c4cccnc4C#N)ccn23)cc(OC)c1C(=O)NCC(F)(F)F [compound 268, 4-[7-(2-cyano-3-pyridyl)imidazo[1,2-a]pyridin-3-yl]-2,6-dimethoxy-N-(2,2,2-trifluoroethyl)benzamide] | > 500 nM | 100 to 500 nM | 10 to 100 nM | – | – | – | – | – |
| COc1cc(-c2cnc3cc(-c4ccc(C)nn4)ccn23)cc(OC)c1C(=O)NCC(F)(F)F [compound 269, 2,6-dimethoxy-4-[7-(6-methylpyridazin-3-yl)imidazo[1,2-a]pyridin-3-yl]-N-(2,2,2-trifluoroethyl)benzamide] | 10 to 100 nM | 0.01 to 10 nM | 0.01 to 10 nM | – | – | – | – | – |
| Cn1cc(-c2ccn3c(-c4cc(F)c(C(=O)NCC(F)(F)F)c(F)c4)cnc3c2)cn1 [compound 271, 2,6-difluoro-4-[7-(1-methylpyrazol-4-yl)imidazo[1,2-a]pyridin-3-yl]-N-(2,2,2-trifluoroethyl)benzamide] | 100 to 500 nM | 0.01 to 10 nM | 10 to 100 nM | – | – | – | – | – |
| COc1cc(-c2cnc3cc(-c4cnn(C)c4)ccn23)cc(NC(C)C)c1C(=O)NC1CC1 [compound 277, N-cyclopropyl-2-(isopropylamino)-6-methoxy-4-[7-(1-methylpyrazol-4-yl)imidazo[1,2-a]pyridin-3-yl]benzamide] | 0.01 to 10 nM | 0.01 to 10 nM | 0.01 to 10 nM | – | – | – | – | – |
